Here are results for 16 compounds from US20080139534A1, “Bisbenzamidines and bisbenzamidoximes for the treatment of human African trypanosomiasis” (XAVIER UNIVERSITY OF LOUISIANA, priority 2006, published 2008).

The test system of experiment [1] is T. b. brucei Lab 110 EATRO. The experiment is described as follows: In vitro trypanocidal activity, bloodforms in HMI-18 medium, Coulter counts. The format is cell-based, Trypanosoma brucei brucei. Particulars: 48 h exposure, bloodforms, read-out: Lab 100 EATRO IC50.
Description: (§1) The compounds were tested against trypanosome isolates grown as blood forms in HMI-18 medium containing 20% horse serum in 24 well microplates at 37° C. in 5% CO2. Wells were inoculated with 1×10^5 trypanosomes. […] One-half the volume was replaced daily. Cell counts were made daily with a Coulter Counter, Model Z1 (Beckman Coulter, Miami, Fla., USA). Cells were diluted with Isoton I buffer (Beckman Coulter) and the aperture was standardized at 5.14 μm. Background checks were performed daily on 1:10 dilutions of medium. Counts, normalization, and coincident counts were accounted for by the standardized Coulter analysis program. Occasionally, hemocytometer counts were performed as a check on the validity of the Coulter program. IC50 values were determined after 48 h from semi-log plots and the values are the result of duplicate determinations. Initially a broad concentration curve was used and then a close concentration curve from which IC50 values were determined. Assays were done in duplicate and each point was the average of the two. Control cells grew to 5×10^6/ml.
(§2) Coulter counts were made daily and IC50 values determined after 48 hours exposure.
Experiment [2] deals with T. b. rhodesiense KETRI 243. The experiment is described as above. Format: cell-based, Trypanosoma brucei rhodesiense. Particulars: 48 h exposure.
Description: as §1, §2
For experiment [3], the system named is calf thymus DNA. Description: Thermal denaturation study, DNA binding affinity (ΔTm).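 Note: shift in midpoint melting temperature of calf thymus DNA thermal denaturation curves caused by compound binding, values averaged over at least two determinations.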 Conditions: 1:5 compound to base pair ratio.
Description: The binding affinity was measured by determining the change in the midpoint (Tm) of the thermal denaturation curves of calf thymus DNA as well as poly(dA-dT) at a 1:5 compound to base pair ratio.
Experiment [4] has as its system T. b. brucei Lab 110 EATRO. The experiment is described as follows: In vivo efficacy in infected mice. Also noted: species or system Trypanosoma brucei brucei.
Description: Female Swiss-Webster mice (weight, 20 g) were infected (intraperitoneally) with 2.5×10^5 trypanosomes from rat blood, and the infection was allowed to develop for 24 h before drug treatment was begun. Groups of three mice each were injected (intraperitoneally) with each drug concentration. All of the experiments included a group of untreated controls. […] Parasitemia of animals dying of infection averaged 0.5-1.0×10^9/mL of blood. These infections are very predictable and daily counts were not done because of the labor involved. […] Animals were monitored weekly for parasites in tail vein blood smears. Mice were considered cured if they survived more than 30 days after the death of the last control with no parasites in tail vein blood smears. MSD (mean survival in days) was also recorded for each group. It is the average time of survival of the animals in the group, exclusive of cured animals.
Mice were infected with 250,000 parasites and dosing commenced 24 h. post infection. Mice were separated into groups of three and given single i.p doses for 3 days unless otherwise noted. Infected untreated controls were used for each experiment. Mice were considered cured if surviving more than 30 days beyond death of controls without parasites in tail vein blood smears. MSD, mean survival in days, exclusive of cured animals.
[5] abbreviates: Trypanosoma brucei, RHODESIENSE
The mark [6] stands for this setting: mice, 1, 2.5, 5, 10, 15, 25 mg/kg/day i.p. for 3 days (all doses failed to cure).
[7] abbreviates: mice, 1, 2.5, 5, 10, 15, 25 mg/kg/day i.p. for 3 days (all doses).
[8] abbreviates: mice, 1 mg/kg/day i.p. for 3 days.

Like-named read-outs stand apart in the source and are kept apart here. Marks after values point to notes of the source that are not given here.

Regarding `N=C(NO)c1ccc(N2CCN(c3ccc(C(=N)NO)cc3)CC2)cc1` [compound 0125, N,N′-Dihydroxy 4,4′-(1,4-piperazinediyl)bisbenzenecarboxidamide], the figures for the IC50 in experiment [1] (Trypanosoma brucei) and in experiment [2] (setting [5]) were 1020 nM and 1920 nM, respectively. Further, the “DNA Binding Δ Tm Calf thymus” value in experiment [3] came to 0.8 °C. Besides, the “# Cured/#Treated (%)” value in experiment [4] (mice, 50 mg/kg/day (po)) is 0/3; in experiment [4] (mice, 100 mg/kg/day (po)), 0/3. The MSD in experiment [4] (mice, 50 mg/kg/day (po)) was 5 days; in experiment [4] (mice, 100 mg/kg/day (po)) it was 5 days; in experiment [4] (mice, 100 mg/kg/day (split dose, po; 9am and 4 pm)), more than 30 days.

On to `CCCCCCCCNC(=N)c1ccc(N2CCN(c3ccc(C(=N)NCCCCCCCC)cc3)CC2)cc1.Cl.Cl` [compound 0130], for which the values for the IC50 in experiment [1] and in experiment [2] were 3.65 nM and 19 nM, respectively. The “DNA Binding Δ Tm Calf thymus” value in experiment [3] is 4.2 °C. In addition, the “# Cured/#Treated (%)” value in experiment [4] (mice, 1, 2.5, 5, 10, 15, 20 mg/kg/day i.p. for 3 days (all doses failed to cure)) is given as 0/3^a. Also, the MSD in experiment [4] (mice, 1, 2.5, 5, 10, 15, 20 mg/kg/day i.p. for 3 days (all doses)) came out at 5 days.

On to `CCCCCCCCCCNC(=N)c1ccc(N2CCN(c3ccc(C(=N)NCCCCCCCCCC)cc3)CC2)cc1.Cl.Cl` [compound 0131], for which the IC50 in experiment [1] came out at 180 nM; in experiment [2], 220 nM. In addition, the “DNA Binding Δ Tm Calf thymus” value in experiment [3] was 1.3 °C. For the same compound, in experiment [4] (setting [6]), the “# Cured/#Treated (%)” value was 0/3^a. In experiment [4] (setting [7]), this compound came in with an MSD of 5 days.

With `Cl.Cl.N=C(NC1CCC1)c1ccc(N2CCN(c3ccc(C(=N)NC4CCC4)cc3)CC2)cc1` [compound 0143], the IC50 in experiment [1] is 6 nM; in experiment [2] it was 51 nM. In addition, in experiment [3], the “DNA Binding Δ Tm Calf thymus” value stood at 16.4 °C. The “# Cured/#Treated (%)” value in experiment [4] (setting [8]) was 0/3. Besides, the MSD was 5 days in experiment [4] (setting [8]); 11 days in experiment [4] (mice, 5 mg/kg/day i.p. for 3 days); more than 30 days in experiment [4] (mice, 10 mg/kg/day i.p. for 3 days).

As for `N=C(N)c1ccc(OC(=O)c2ccc(C(=O)Oc3ccc(C(=N)N)cc3)cc2)cc1` [compound 0432], the IC50 in experiment [1] was determined as 4300 nM; in experiment [2] it was 3100 nM. In experiment [3], the “DNA Binding Δ Tm Calf thymus” value was 9.9 °C.

As for `N/C(=N\O)c1ccc(NC(=O)CCCC(=O)Nc2ccc(/C(N)=N/O)cc2)cc1` [compound 0704, N,N′-bis[4-(N-Hydroxyamidino)phenyl]pentanediamide], the values for the IC50 in experiment [1] (Trypanosoma brucei) and in experiment [2] (setting [5]) were 7300 nM and 10000 nM, respectively.

With `N=C(N)c1ccc(NC(=O)CCC(=O)Nc2ccc(C(=N)N)cc2)cc1` [compound 0707], the IC50 stood at 9000 nM in experiment [1] and 2190 nM in experiment [2].

For the compound `N=C(N)c1ccc(NC(=O)CCCCCCCC(=O)Nc2ccc(C(=N)N)cc2)cc1` [compound 0708], the IC50 came to 400 nM in experiment [1] and 240 nM in experiment [2].

As to `N=C(N)c1ccc(NC(=O)CCCCCCCCCCC(=O)Nc2ccc(C(=N)N)cc2)cc1` [compound 0711], the IC50 was 8.4 nM in experiment [1] and 6.6 nM in experiment [2]. Also, the “# Cured/#Treated (%)” value in experiment [4] (setting [6]) was 0/3^a. For the same compound, the MSD in experiment [4] (setting [7]) was 5 to 10.3 days.

As to `N#Cc1ccc(NC(=O)CC(=O)Nc2ccc(C#N)cc2)cc1` [compound 0712], the IC50 in experiment [1] amounted to 5000 nM; in experiment [2] it was 1600 nM.

For the compound `N#Cc1ccc(NC(=O)C(=O)Nc2ccc(C#N)cc2)cc1` [compound 0713], the figures for the IC50 in experiment [1] and in experiment [2] were 680 nM and 340 nM, respectively.

As for `O=C(Nc1ccccc1)C(=O)Nc1ccccc1` [compound 0714], the IC50 in experiment [2] came to 155 nM.

As for `N=C(N)c1cccc(NC(=O)CCCCC(=O)Nc2cccc(C(=N)N)c2)c1` [compound 0715], the IC50 was determined as 41 nM in experiment [1] and 21 nM in experiment [2].

On to `NC(=O)c1ccc(NC(=O)CCCCC(=O)Nc2ccc(C(N)=O)cc2)cc1` [compound 0716], for which the IC50 in experiment [1] is 2800 nM; in experiment [2], 1100 nM.

With `NC(=O)c1cccc(NC(=O)CCCCC(=O)Nc2cccc(C(N)=O)c2)c1` [compound 0717], it took 1980 nM to reach half-maximal inhibition in experiment [2] (IC50). Further, in experiment [4] (setting [6]), the “# Cured/#Treated (%)” value is reported as 0/3^a. Besides, the MSD in experiment [4] (setting [7]) is 5 days.

With `N=C(N)c1ccc(NC(=O)CCCCC(=O)Nc2cccc(C(=N)N)c2)cc1` [compound 0721], the half-maximal inhibitory concentration (IC50) in experiment [1] was 12.5 nM; in experiment [2], 7 nM.
